Data on seven compounds can be found in paper PMC12811996, “Exploration and Characterization of the Antimalarial Activity of Pyrimidine‐2,4‐Diamines for which Resistance is Mediated by the ABCI3 Transporter” (Chemmedchem, 2025).

Where two headings read alike, the source gives them in different places. A value given as a limit tells only on which side of the number the result lay.

Data set [1] deals with Plasmodium falciparum strain 3D7A. Kind of data set: Parasite reduction ratio assay. It is filed as cell-based. The conditions noted are these: for asexual speed-of-kill profile: 10 × EC50, 24 and 48 h treatment, P. falciparum 3D7. An excerpt:
(§1) Figure 5 a) Stage of arrest assay showing that W482 (1) blocks ring‐trophozoite transition in the asexual stage of P. falciparum. […] Replicates of Giemsa‐stained blood smears can be found in Figure S4 (Supporting Information). c) Parasite reduction ratio assay conducted at 10 × EC50 of W482 (1). Data represent means and SD of P. falciparum 3D7 parasite survival measuring 3 independent replicates by two‐color flow cytometry using CFDA‐SE and Hoescht 33,342 staining.
Samples of parasites were collected at 24‐ and 48‐hour timepoints, whereby the compound was washed out and fresh erythrocytes pre‐labeled with intracellular dye were added. Samples were then incubated for 18 days, and then the number of viable parasites was quantified by flow cytometry (Figure 5c).
This assay was conducted following a previously described protocol using the Plasmodium falciparum strain 3D7A, MRA‐151.^[ [19] ^, [28] ^] The human biological samples used in the study were sourced ethically, and their research use was conducted in accordance with the terms of informed consent under an IRB/EC‐approved protocol.

Data set [2] deals with P. falciparum 3D7 parasites. Kind of data set: Stage of asexual arrest assay. It is filed as cell-based, Plasmodium falciparum. The method, then:
The asexual stage of arrest and parasite reduction ratio (PRR) assays were undertaken on W482 (1) to assess the speed‐of‐asexual kill and the alignment of the pyrimidine‐2,4‐diamine class with the Target Candidate Profiles (TCPs).^[ [27] ^] […] Parasite samples were collected from the culture at 12, 24, 36, 48, and 60 h, and microscopy was performed on Giemsa‐stained thin blood‐smeared samples. These samples were also quantified with flow cytometry using SYBR Green.
as §1

In data set [3] the test system is W482-resistant P. falciparum 3D7 populations. Kind of data set: 72 h Pf LDH assay against W482-selected populations. Conditions: for EC50: 72 h Pf LDH assay. The class given is cell-based, Plasmodium falciparum. The method, then:
To identify the mechanism by which the pyrimidine‐2,4‐diamine class kills the P. falciparum parasite, a forward genetic study was performed on the hit compound W482 (1). We selected W482 (1) as the representative compound from this class, as the forward genetics and phenotype assays were performed in parallel to the medicinal chemistry described in the prior section. […] Genomic DNA was then prepared from these two resistant populations and the parental 3D7 strain and whole genome sequenced.
Figure 3 The activity of W482 (1) against W482‐selected populations and their 3D7 parental. The data are mean and SD from 3 independent 72 h Pf LDH assays.
This was performed as previously described.^[ [14] ^] Briefly, 3D7 wildtype parasites initially exposed to 2 × EC50 (0.3 µM) of W482 (1) and incremental increases in EC50 were applied until 10 × EC50 was reached. The resistant populations were not cloned for whole‐genome sequencing.

Data set [4] in a line: in vitro. The class given is in vitro ADME. The method, then: (§2) The aqueous solubility and in vitro metabolic stability of selected analogs were assessed to determine if they had favorable parameters (Table 9 ).These analogs were selected based on their potency and the modifications that were incorporated, which led to compounds 55 and 56. […] The high lipophilicity of analogs 1, 11, and 16 was not favorable for metabolic stability.
(§3) This was performed as previously described.^[ [14] ^, [16] ^]

A further data set has as its target Albumax (Bos taurus, UniProt P02769). Kind of data set: in vitro. The class given is in vitro ADME.
The nature of data set [5]: physchem. The class given is physicochemical. The conditions noted are these: kinetic in PBS, pH 7.4; read-out: Aqueous solubility pH 7.4. As for the experimental part:
as §2, §3

In another data set the test system is PfABCI3-HAreg parasites. Kind of data set: Parasite proliferation assay with PfABCI3-HAreg parasites (SYBR Safe, 72 h). The conditions noted are these: mean ± SEM, n = 4; for IC50: 72 h. It is filed as cell-based, Plasmodium falciparum. As for the experimental part:
Glucosamine (GlcN) (5 mM) was used to reduce the level of pfabci3‐ha. Chloroquine and MMV020746 were used as negative and positive controls, respectively.
Figure 4 Sensitivity of PfABCI3‐HAreg parasites to growth inhibition by chloroquine (a), MMV020746 (b), and W482 (1) (c). Data for parasites in which pfabci3‐ha mRNA was reduced (+ GlcN) are shown in red. GlcN (5 mM) was added to the parasites 48 h prior to the assay and maintained throughout the 72 h assay. The data for parasites expressing a normal level of PfABCI3‐HA (‐GlcN) are shown in black. The data in all panels are from four independent experiments performed on different days. […] Parasites that were treated with or without GlcN (5 mM) were tested concurrently in each assay. TEXT PRINTED IN THE PICTURE: chloroquine: IC50 ± SEM (nM) - GlcN: 12.6 ± 1.1; IC50 ± SEM (nM) + GlcN: 11.9 ± 1.5 | MMV020746: IC50 ± SEM (nM) - GlcN: 104 ± 13; IC50 ± SEM (nM) + GlcN: 32.9 ± 3.9 | W482 (1): IC50 ± SEM (nM) - GlcN: 312 ± 28; IC50 ± SEM (nM) + GlcN: 153 ± 12
Parasite proliferation assays were performed with PfABCI3‐HAreg parasites^[ [19] ^] according to a previously described method, with the fluorescent nucleic acid intercalating dye SYBR Safe used to measure parasite viability.^[ [32] ^, [33] ^] The assays were commenced with cultures consisting of predominantly ring‐stage parasites with a starting hematocrit of 1% and parasitemia of 1%. […] It was shown previously that there is a reduction in pfabci3‐ha mRNA in PfABCI3‐HAreg exposed to 5 mM GlcN and a decrease in parasite viability over time.^[ [19] ^] The level of knockdown of the protein is not known.

Data set [6] deals with P. falciparum 3D7 parasites. Kind of data set: P. falciparum 3D7 asexual stage parasite LDH assay, 72 h. The class given is cell-based, Plasmodium falciparum. As for the experimental part:
(§4) To establish the SAR, the antiparasitic activity of the analogs was determined using an assay that measures the lactate dehydrogenase (LDH) activity of asexual P. falciparum 3D7 parasites after 72 h of compound treatment. Mammalian cytotoxicity was monitored using an assay that measures the growth of HepG2 cells using Cell Titer‐Glo after 48 h of compound treatment.
This was performed as previously described, whereby lactate dehydrogenase (LDH) was used as a metabolic marker for parasite growth after a 72‐h incubation period.^[ [14] ^, [30] ^]

The nature of data set [7]: physchem. The class given is physicochemical. Conditions: shake-flask method; listed as 1. As for the experimental part: as §3
Data set [8] can be described thus: in vitro. The conditions noted are these: human; HepG2 viability over 48 h, Cell Titer-Glo; means and SDs, 3 experiments; read-out: HepG2 CC50 (SD). It is filed as cell-based. The method, then: as §4
This was performed as previously described.^[ [14] ^, [31] ^]

In data set [9] the test system is early stage (I–III) gametocytes. The conditions noted are these: at 2.5 µM; cited from earlier work.
Data set [10] concerns late stage (IV‐V) gametocytes. Conditions: at 5 µM; cited from earlier work.
The next data set concerns P. berghei liver stage. Conditions: at 50 µM; cited from earlier work.
The test system of the next data set is hemoglobin catabolism. More on the design: method as in PMID 27572391. Conditions: previous metabolomic profiling; cited from earlier work.
The subject of data set [11] is P. falciparum 3D7 parasites. Conditions: asexual P. falciparum 3D7; hits from GSK TCAMS screen / MMV Malaria Box; cited from earlier work.
Where [12] appears, read: Plasmodium falciparum, 3D7, 72 h, P. falciparum 3D7, LDH activity, 72 h exposure, means and SDs, 3 or more experiments, read-out: Pf parasite EC50 (SD).

Albumax, sequence (P02769 25-607): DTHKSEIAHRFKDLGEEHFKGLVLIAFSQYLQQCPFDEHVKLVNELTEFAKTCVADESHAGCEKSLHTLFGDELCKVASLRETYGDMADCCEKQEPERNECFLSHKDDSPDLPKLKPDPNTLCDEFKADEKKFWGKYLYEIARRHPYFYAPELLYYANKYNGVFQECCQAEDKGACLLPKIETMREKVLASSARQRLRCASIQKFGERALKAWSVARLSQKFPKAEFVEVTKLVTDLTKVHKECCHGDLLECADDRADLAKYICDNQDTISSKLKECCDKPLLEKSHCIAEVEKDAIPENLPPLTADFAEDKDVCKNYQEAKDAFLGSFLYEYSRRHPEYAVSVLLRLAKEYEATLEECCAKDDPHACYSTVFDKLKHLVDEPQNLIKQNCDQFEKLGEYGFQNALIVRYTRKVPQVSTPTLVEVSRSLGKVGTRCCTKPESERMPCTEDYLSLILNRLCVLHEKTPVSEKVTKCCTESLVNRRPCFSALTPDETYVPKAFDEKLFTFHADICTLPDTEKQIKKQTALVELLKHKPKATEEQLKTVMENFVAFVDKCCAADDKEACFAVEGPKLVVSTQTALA

For “3‐Cyclohexyl‐N‐(4‐((4‐(dimethylamino)‐6‐methylpyrimidin‐2‐yl)amino)phenyl)propenamide [W482 (1)]”, in [1], the asexual speed-of-kill profile entry was “fast killing profile”. In addition, the lag phase in data set [1] (parasite killing profile) amounted to 24 h. Further, the “asexual stage of arrest” value in data set [2] (10 × EC50 (1.4 µM) for 60 h, Giemsa-stained smears) is recorded as “ring to trophozoite transition stage”. The “percentage of parasitemia over time” value in data set [2] (10 × EC50 (1.4 µM), SYBR Green flow cytometry) was “declines after 36 h”. Also, the EC50 in data set [3] (population #1, read-out: EC50 against W482-selected population #1) stood at 396 nM; in data set [3] (population #2, read-out: EC50 against W482-selected population #2), 407 nM; in [6] (parental 3D7 in resistance selection study, 72 h Pf LDH assay, 3 independent assays, read-out: EC50 against parental 3D7), 197 nM. Also, in [3] (two recovered populations vs parental 3D7), the “fold decreased activity of resistant populations compared to parental 3D7” value is listed as 2 fold. For the same compound, the “Human liver microsomes CLint” value in “in vitro [4]” was 174 µL/min/mg; in “in vitro [4]” (listed as 1) it was above 117 µL/min/mg. In addition, the “Rat hepatocytes CLint” value in the data set “in vitro [4]” is above 92 µL/min/10^6 cells. Besides, at Albumax, the “Albumax binding % bound” value stood at 99.1%. The solubility in the data set “physchem [5]” was determined as 3.8 µM. The IC50 in the data set with PfABCI3-HAreg parasites (PfABCI3-HAreg parasites expressing normal level of PfABCI3-HA (-GlcN)) came out at 312 ± 28 nM; in the data set on PfABCI3-HAreg parasites (PfABCI3-HAreg parasites with reduced pfabci3-ha mRNA (+ 5 mM GlcN)), 153 ± 12 nM. Moreover, in the data set on PfABCI3-HAreg parasites, the “fold lower IC50 for +GlcN parasites than -GlcN parasites” value amounted to 2.0 ± 0.1 fold. For the same compound, the eLogD in the data set “physchem [7]” is recorded as 4.6–5.0.
`CCN(CC)c1cc(C)nc(Nc2ccc(NC(=O)CCC3CCCCC3)cc2)n1` [Compound 4]: the EC50 in [6] (setting [12]) worked out at 520 nM. The CC50 in the data set “in vitro [8]” was 18000 nM.
`Cc1cc(N2CCCC2)nc(Nc2ccc(NC(=O)CCC3CCCCC3)cc2)n1` [Compound 7, 3‐Cyclohexyl‐N‐(4‐((4‐methyl‐6‐(pyrrolidin‐1‐yl)pyrimidin‐2‐yl)amino)phenyl)propanamide]: in data set [6] (setting [12]), the EC50 is 540 nM. Moreover, the CC50 in the data set “in vitro [8]” came out at 12600 nM.
The corresponding values for `CN(C)c1cc(Nc2ccc(NC(=O)CCC3CCCCC3)cc2)nc2ccccc12` [Compound 22, 3‐Cyclohexyl‐N‐(4‐((4‐(dimethylamino)quinolin‐2‐yl)amino)phenyl)propanamide] are 2470 nM and 15900 nM.
On to `Cc1cc(N(C)C)nc(Nc2ccc(NC(=O)Nc3ccccc3)cc2)n1` [MMV020243 (2)], for which the “inhibition of early stage (I–III) gametocytes” value in [9] is 67%. The “inhibition of late stage (IV‐V) gametocytes” value in data set [10] is recorded as 2%. For the same compound, the “inhibition of P. berghei liver stage development” value in the data set with P. berghei liver stage is recorded as 2%.
On to `Cc1cc(N2CCCC2)nc(Nc2ccc(NC(=O)CCc3ccccc3)cc2)n1` [MMV396669 (3)], for which the metabolomic profile entry with hemoglobin catabolism is recorded as “peptide signature consistent with hemoglobin catabolism inhibition”. Further, the EC50 in data set [11] is 1070 nM. The “inhibition of early stage (I–III) gametocytes” value in data set [9] is 79%. Also, the “inhibition of late stage (IV‐V) gametocytes” value in data set [10] is recorded as 21%. The “inhibition of P. berghei liver stage development” value in the data set with P. berghei liver stage is reported as 3%.
For the compound `CCc1nc(N)nc(N)c1-c1ccc(Cl)cc1` [Pyrimethamine, reference compound], the asexual speed-of-kill profile entry in data set [1] was “moderate killing rate”.

For orientation: EC50 means the concentration giving half of the maximal effect. A word on the solubility: it is the dissolved amount per volume that the medium holds. As a reminder, the IC50 is the concentration needed to halve the response being measured. What is called CC50 is the concentration at which the toxic effect on the cells reaches its halfway point.
